# Laboratory results from patent US20070232796A1, “Medical Solution, a Method for Producing Said Medical Solution and Use Thereof” (priority 2004, published 2007).
# Entries after “also recorded” stand apart in the source; their conditions may differ.
# System: Cell Growth
# Assay: Inhibition of Cell Growth (ICG) as marker for cytotoxicity / biological reactivity
# Format: cell-based
# From the text: FIG. 1 is a diagram showing the relation ship between Inhibition of Cell Growth (ICG) and concentration of 3,4-DGE in a solution.
# In order to investigate and come up with the present invention, the present inventors studied the relationship between the different GDPs and came to the conclusion that the GDPs interact according to the reaction formula given above.
smiles,measurement,setting,value
"O=CC(=O)C=CC(O)CO (centres unmarked) [3,4-DGE, 3,4-dideoxyglucosone-3-ene]","relationship between concentration of 3,4-DGE and Inhibition of Cell Growth (ICG)","FIG. 1, ICG used as measure/marker for biological reactivity","good dose relation between 3,4-DGE and cytotoxicity; also recorded: dose dependent relationship"
same,toxicity compared with the other known GDPs,"known GDPs: acetaldehyde, formaldehyde, glyoxal, methylglyoxal, 3-DG, 5-HMF",mast toxic of the known GDPs
